Measured values from BindingDB's records for doi:10.1016/s0960-894x(02)00206-8 (Bristol-Myers Squibb, 2002).

Assay: In vitro C-C chemokine receptor type 3 activity of compound by using eotaxin induced human eosinophil chemotaxis assay

Row | IC50 [nM] | Structure (SMILES)
1 | 20 | CC[C@H](O)[C@H]1C[C@@H](Cc2ccccc2)CCN1CCCNC(=O)Nc1cccc(C(C)=O)c1 [1-(3-Acetyl-phenyl)-3-{3-[(2R,4S)-4-benzyl-2-((S)-1-hydroxy-propyl)-piperidin-1-yl]-propyl}-urea]
2 | 80 | N#Cc1cccc(NC(=O)NCCCN2CCC(Cc3ccc(F)cc3)CC2)c1 [1-(3-Cyano-phenyl)-3-{3-[4-(4-fluoro-benzyl)-piperidin-1-yl]-propyl}-urea]
3 | 200 | N#Cc1cccc(NC(=O)NCCCN2CCC(Cc3ccc(Cl)cc3)CC2)c1 [1-{3-[4-(4-Chloro-benzyl)-piperidin-1-yl]-propyl}-3-(3-cyano-phenyl)-urea]
